According to publication PMC11594608, “Sulfonamide-Based Inhibition of the β-Carbonic Anhydrase from A. baumannii, a Multidrug-Resistant Bacterium” (International Journal of Molecular Sciences, 2024):
Where two headings read alike, the source gives them in different places.

Key:
[1] = target: T1, βAbauCA (CanB) (Acinetobacter baumannii, UniProt A0A7U3Y636); assay: stopped-flow CO2 hydrase assay; type: biochemical; settings: CO2 substrate, […] TRIS pH […] NaClO4, […] °C, […] min preincubation
T1 construct: gene AB57_1063; oligomer not determined here
T1 sequence (A0A7U3Y636 1-204): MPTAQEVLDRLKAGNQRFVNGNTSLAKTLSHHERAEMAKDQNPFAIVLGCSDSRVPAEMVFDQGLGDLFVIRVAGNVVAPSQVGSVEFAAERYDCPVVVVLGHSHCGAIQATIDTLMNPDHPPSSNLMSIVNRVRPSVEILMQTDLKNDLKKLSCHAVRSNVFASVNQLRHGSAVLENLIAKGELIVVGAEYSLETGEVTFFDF

[2] = target: T2, hCA I (Homo sapiens, UniProt P00915); assay: stopped-flow CO2 hydrase assay; type: biochemical; settings: read-out: KI (nM) ^a / CA I
T2 construct: gene CA1
T2 sequence (P00915 2-261): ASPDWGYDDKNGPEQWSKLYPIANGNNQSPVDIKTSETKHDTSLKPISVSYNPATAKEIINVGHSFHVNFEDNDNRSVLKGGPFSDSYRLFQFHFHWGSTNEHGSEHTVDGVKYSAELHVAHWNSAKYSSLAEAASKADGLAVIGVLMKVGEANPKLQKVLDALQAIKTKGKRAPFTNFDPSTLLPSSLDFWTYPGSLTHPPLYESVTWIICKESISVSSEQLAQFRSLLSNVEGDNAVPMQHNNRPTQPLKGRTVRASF

Row | SMILES | Ki [1] [nM] | also measured
1 | CC(=O)Nc1nnc(S(N)(=O)=O)s1 [AAZ, 5-acetamido-1,3,4-thiadia-zole-2-sulphonamide] | 191 | 
2 | CCN[C@H]1CN(CCCOC)S(=O)(=O)c2sc(S(N)(=O)=O)cc21 [BRZ, Brinzolamide] | 170 | 
3 | NS(=O)(=O)c1nnc(NS(=O)(=O)c2ccccc2)s1 [BZA, Benzolamide] | 113 | 
4 | Cc1ccc(-c2cc(C(F)(F)F)nn2-c2ccc(S(N)(=O)=O)cc2)cc1 [CLX] | 270 | 
5 | NS(=O)(=O)c1cc(Cl)c(Cl)c(S(N)(=O)=O)c1 [DCP] | 472 | 
6 | CCN[C@H]1C[C@H](C)S(=O)(=O)c2sc(S(N)(=O)=O)cc21 [DZA] | 232 | 
7 | NS(=O)(=O)c1cc2c(cc1Cl)NCNS2(=O)=O [HCT] | 875 | 
8 | CC(=O)N=c1sc(S(N)(=O)=O)nn1C [MZA] | 249 | 
9 | O=C1NS(=O)(=O)c2ccccc21 [SAC] | 7490 | 
10 | CCN1CCCC1CNC(=O)c1cc(S(N)(=O)=O)ccc1OC (stereo not shown) [SLP] | 6860 | 
11 | NS(=O)(=O)c1ccc(N2CCCCS2(=O)=O)cc1 [SLT] | 542 | 
12 | CC1(C)O[C@@H]2[C@@H](CO[C@@]3(COS(N)(=O)=O)OC(C)(C)O[C@@H]23)O1 [TPM, topiramate] | 2770 | 
13 | Cc1onc(-c2ccccc2)c1-c1ccc(S(N)(=O)=O)cc1 [VLX] | 215 | 
14 | NS(=O)(=O)Cc1noc2ccccc12 [ZNS] | 2340 | 
15 | NS(=O)(=O)c1cccc(S(N)(=O)=O)c1 [compound 3, 3] |  | Ki ([2]; CO2 substrate, […] HEPES pH […] °C, […] min preincubation): 79 nM
16 | Cc1ccc(S(N)(=O)=O)cc1 [compound 4, 4] | 1480 | Ki [2]: 78500 nM
17 | NS(=O)(=O)c1cc(Cl)cc(Cl)c1O [compound 10, 10] | 4160 | 
18 | Nc1cc(C(F)(F)F)c(S(N)(=O)=O)cc1S(N)(=O)=O [compound 11, 11] | 928 | 
19 | Nc1cc(Cl)c(S(N)(=O)=O)cc1S(N)(=O)=O [compound 12, 12] | 1200 | 
20 | Nc1nnc(S(N)(=O)=O)s1 [compound 13, 13] | 444 | 
21 | Cn1nc(S(N)(=O)=O)sc1=N [compound 14, 14] | 604 | 
22 | NS(=O)(=O)c1ccc(O)cc1 [compound 15, 15] | 625 | 
23 | NS(=O)(=O)c1ccc(CO)cc1 [compound 16, 16] | 700 | 
24 | NS(=O)(=O)c1ccc(CCO)cc1 [compound 17, 17] | 715 | 
25 | NS(=O)(=O)c1ccc(C(=O)O)cc1 [compound 18, 18] | 547 | 
26 | Nc1nccc(Nc2ccc(S(N)(=O)=O)cc2)n1 [compound 19, 19] | 407 | 
27 | Nc1ccc(S(=O)(=O)Nc2nnc(S(N)(=O)=O)s2)cc1 [compound 20, 20] | 344 | 
28 | Nc1ccc(S(=O)(=O)Nc2ccc(S(N)(=O)=O)cc2)cc1 [compound 22, 22] | 276 | 
29 | Nc1ccc(S(=O)(=O)NCc2ccc(S(N)(=O)=O)cc2)cc1 [compound 23, 23] | 317 | 
30 | Nc1ccc(S(=O)(=O)NCCc2ccc(S(N)(=O)=O)cc2)cc1 [compound 24, 24] | 326 | 
